Results: the NIST ThermoML archive (doi:10.1021/acs.jced.7b00297)
Numbers after ± are expanded uncertainties.

Assay: mn = molality of the nth substance listed, in mol/kg
Conditions: 84.5 kPa, Liquid; for speed of sound: Single path-length method; for mass density: Vibrating tube method

CCCCCCn1cc[n+](C)c1.[Cl-] [1-hexyl-3-methylimidazolium chloride] + O
Conditions	mass density, 288.15 K [kg/m3]	mass density, 298.15 K [kg/m3]	mass density, 308.15 K [kg/m3]	mass density, 318.15 K [kg/m3]	speed of sound, 288.15 K [m/s]	speed of sound, 298.15 K [m/s]	speed of sound, 308.15 K [m/s]	speed of sound, 318.15 K [m/s]
m1 = 0.0096	999.203 ± 4	997.128 ± 4	994.101 ± 4	990.268 ± 4	1468.2 ± 1	1498.2 ± 1	1521.1 ± 1	1537.6 ± 1
m1 = 0.0296	999.412 ± 4	997.304 ± 4	994.252 ± 4	990.4 ± 4	1471.7 ± 1	1501.3 ± 1	1523.7 ± 1	1539.8 ± 1
m1 = 0.0585	999.713 ± 4	997.562 ± 4	994.471 ± 4	990.58 ± 4	1476.8 ± 1	1505.7 ± 1	1527.4 ± 1	1543 ± 1
m1 = 0.0734	999.867 ± 4	997.692 ± 4	994.583 ± 4	990.681 ± 4	1479.4 ± 1	1507.9 ± 1	1529.3 ± 1	1544.6 ± 1
m1 = 0.0999	1000.15 ± 4	997.932 ± 4	994.787 ± 4	990.859 ± 4	1483.9 ± 1	1511.7 ± 1	1532.6 ± 1	1547.3 ± 1
m1 = 0.1212	1000.37 ± 4	998.125 ± 4	994.95 ± 4	990.996 ± 4	1487.4 ± 1	1514.8 ± 1	1535.2 ± 1	1549.6 ± 1
m1 = 0.1542	1000.73 ± 4	998.421 ± 4	995.204 ± 4	991.215 ± 4	1493 ± 1	1519.5 ± 1	1539.2 ± 1	1553 ± 1
m1 = 0.2244	1001.47 ± 4	999.058 ± 4	995.748 ± 4	991.681 ± 4	1504 ± 1	1528.9 ± 1	1547.3 ± 1	1559.8 ± 1
m1 = 0.2863	1002.12 ± 4	999.62 ± 4	996.227 ± 4	992.089 ± 4	1513.8 ± 1.1	1537.3 ± 1.1	1554.3 ± 1	1565.8 ± 1
m1 = 0.469	1004.08 ± 4	1001.27 ± 4	997.628 ± 4	993.281 ± 4	1540.2 ± 1.1	1559.7 ± 1.1	1573.2 ± 1.1	1581.6 ± 1.1
m1 = 0.8901	1008.38 ± 4	1004.89 ± 4	1000.7 ± 4	995.899 ± 4	1591.4 ± 1.1	1602.4 ± 1.1	1608.7 ± 1.1	1610.9 ± 1.1
